This note sets out measurements from patent US7939548B2, “Certain chemical entities, compositions, and methods” (Cytokinetics, Inc., priority 2006, dated 2011).

In the assay the target is T1, chicken gizzard smooth muscle myosin subfragment-1 chemically crosslinked to either cardiac or skeletal actin (Gallus gallus, UniProt P10587).
T1 construct: chicken gizzard smooth muscle myosin subfragment-1
In words: Smooth muscle myosin ATPase dose response assay (pyruvate kinase/horseradish peroxidase/pyruvate oxidase-coupled). The class given is biochemical. As to conditions: ATPase activity of crosslinked smooth muscle actomyosin (subfragment-1); amplex red fluorescence; 4 parameter fit; read-out: IC50 Arithmetic Mean. The method, then:
Screening assays were performed using a pyruvate kinase and lactate dehydrogenase-coupled ATPase assay containing the following reagents: Potassium PIPES (50 mM), MgCl2 (3 mM), KCl (100 mM), ATP (0.15 mM), DTT (1 mM), BSA (0.1 mg/ml), NADH (0.5 mM), PEP (1.5 mM), pyruvate kinase (4 U/ml), lactate dehydrogenase (8 U/ml), and antifoam (50 ppm) (concentrations expressed are final assay concentrations). The pH was adjusted to 6.80 at 22 °C by addition of potassium hydroxide. Lead optimization assays were performed with a more sensitive pyruvate kinase/horseradish peroxidase/pyruvate oxidase-coupled ATPase assay containing the following reagents: Potassium PIPES (12 mM), MgCl2 (2 mM), KCl (100 mM), ATP (0.15 mM), BSA (0.05 mg/ml), potassium phosphate (2 mM), amplex red (0.1 mM), PEP (0.1 mM), pyruvate kinase (4 U/ml), horseradish peroxidase (0.5 U/ml), pyruvate oxidase (0.5 U/ml), and antifoam (50 ppm) (concentrations expressed are final assay concentrations). The pH was adjusted to 7.00 at 22 °C by addition of potassium hydroxide.
The protein components specific to this assay are chicken gizzard smooth muscle myosin subfragment-1 that has been chemically crosslinked to either cardiac or skeletal actin using an excess of 1-Ethyl-3-[3-dimethylaminopropyl]carbodiimide hydrochloride and N-hydroxysuccinimide. The exact concentration of the crosslinked smooth muscle myosin in the assay is determined empirically, by titration to achieve a desired rate of ATP hydrolysis. The concentration varies between protein preparations due to variations in the fraction of active molecules in each preparation.
Compound dose response assays are performed by first preparing a dilution series of test compound, each with an assay mixture containing potassium PIPES, MgCl2, KCl, ATP, BSA, potassium phosphate, amplex red, PEP, crosslinked smooth muscle actomyosin (subfragment-1), antifoam, and water. The assay is started by adding an equal volume of solution containing potassium Pipes, MgCl2, KCl, BSA, potassium phosphate, pyruvate kinase, horseradish peroxidase, pyruvate oxidase, antifoam, and water. ATP hydrolysis is monitored by measuring the fluorescence of amplex red (excitation at 480 nm, emission at 615 nm). The resulting dose response curve is fit by the 4 parameter equation y=Bottom+((Top-Bottom)/(1+((IC50/X)^Hill))). The IC50 is defined as the concentration at which ATPase activity is midway between the top and bottom of the dose response curve.
On to `COC/C=C/c1ccc(C(=O)NCc2cccnc2)c(NCCc2cccc(F)c2)n1` [(6-((1E)-3-methoxyprop-1-enyl)-2-{[2-(3-fluorophenyl)ethyl]amino}(3-pyridyl))-N-(3-pyridylmethyl)carboxamide], for which the concentration for half-maximal inhibition (IC50) – broadly, the midpoint of a concentration-inhibition curve – came out at 0.927 µM. The same measure for `O=C(NCc1cccnc1)c1ccc(NCc2ccccn2)nc1NCCc1cccc(F)c1` [(2-{[2-(3-fluorophenyl)ethyl]amino}-6-[(2-pyridylmethyl)amino](3-pyridyl))-N-(3-pyridylmethyl)carboxamide]: 10.8 µM. For `C=C(OCC)c1ccc(C(=O)NCc2cccnc2)c(NCCc2cccc(F)c2)n1` [(6-(1-ethoxyvinyl)-2-{[2-(3-fluorophenyl)ethyl]amino}(3-pyridyl))-N-(3-pyridylmethyl)carboxamide] the value was 0.702 µM.

For `CN(C)C(=N)c1ccc(C(=O)NCc2cccnc2)c(NCCc2cccc(F)c2)n1` [(6-[(dimethylamino)iminomethyl]-2-{[2-(3-fluorophenyl)ethyl]amino}(3-pyridyl))-N-(3-pyridylmethyl)carboxamide], the concentration for half-maximal inhibition (IC50) turned out to be 17.3 µM. For `N#Cc1ccccc1-c1cnc(NCCc2cccc(F)c2)c(C(=O)NCc2cccc(CN)n2)c1` [N-{[6-(aminomethyl)(2-pyridyl)]methyl}(5-(2-cyanophenyl)-2-{[2-(3-fluorophenyl)ethyl]amino}(3-pyridyl))carboxamide] the value was 6.03 µM; for `O=C(NCc1cccnc1)c1cccnc1NCCc1cccc(F)c1` [(2-{[2-(3-fluorophenyl)ethyl]amino}(3-pyridyl))-N-(3-pyridylmethyl)carboxamide], 26.8 µM. The same measure for `C/C=C/c1nc(NCCc2cccc(F)c2)c(C(=O)NCc2cccnc2CN)cc1F` [(6-((1E)prop-1-enyl)-5-fluoro-2-{[2-(3-fluorophenyl)ethyl]amino}(3-pyridyl))-N-{[2-(aminomethyl)(3-pyridyl)]methyl}carboxamide]: 0.0805 µM.

Take `O=C(CCCCNc1ccc(C(=O)NCc2cccnc2)c(NCCc2cccc(F)c2)n1)NCc1cccnc1` [5-[(6-{[2-(3-fluorophenyl)ethyl]amino}-5-[N-(3-pyridylmethyl)carbamoyl](2-pyridyl))amino]-N-(3-pyridylmethyl)pentanamide]: the half-maximal inhibitory concentration (IC50) came to 49.2 µM. The same measure for `COCCCc1ccc(C(=O)NCc2cccnc2)c(NCCc2cccc(F)c2)n1` [(2-{[2-(3-fluorophenyl)ethyl]amino}-6-(3-methoxypropyl)(3-pyridyl))-N-(3-pyridylmethyl)carboxamide]: 8.18 µM. The same measure for `COC(=O)/C=C(\C)c1ccc(C(=O)NCc2cccnc2)c(NCCc2cccc(F)c2)n1` [methyl (2E)-3-(6-{[2-(3-fluorophenyl)ethyl]amino}-5-[N-(3-pyridylmethyl)carbamoyl](2-pyridyl))but-2-enoate]: 3.45 µM; for `CC(=O)N(C)c1ccc(C(=O)NCc2cccnc2)c(NCCc2cccc(F)c2)n1` [N-(6-{[2-(3-fluorophenyl)ethyl]amino}-5-[N-(3-pyridylmethyl)carbamoyl](2-pyridyl))-N-methylacetamide]: 33.5 µM; for `CNC(=O)CNC(=O)c1cc(-c2ccccc2)cnc1NCCc1cccc(F)c1` [2-[(2-{[2-(3-fluorophenyl)ethyl]amino}-5-phenyl(3-pyridyl))carbonylamino]-N-methylacetamide]: 15 µM.

For `CC(O)CN(C)c1ccc(C(=O)NCc2cccnc2)c(NCCc2cccc(F)c2)n1` (stereo not drawn) [(2-{[2-(3-fluorophenyl)ethyl]amino}-6-[(2-hydroxypropyl)methylamino](3-pyridyl))-N-(3-pyridylmethyl)carboxamide], the 50% inhibitory concentration (IC50) was found to be 10.5 µM. For `CCOC(=O)c1ccc(C(=O)NCc2cccnc2)c(NCCc2cccc(F)c2)n1` [ethyl 6-{[2-(3-fluorophenyl)ethyl]amino}-5-[N-(3-pyridylmethyl)carbamoyl]pyridine-2-carboxylate] the value was 2.65 µM. The same measure for `O=C(NCc1ccccn1)c1cc(Br)c(Cl)nc1NCCc1cccc(F)c1` [(5-bromo-6-chloro-2-{[2-(3-fluorophenyl)ethyl]amino}(3-pyridyl))-N-(2-pyridylmethyl)carboxamide]: 17.3 µM. For `N#CNC(=N)c1ccc(C(=O)NCc2cccnc2)c(NCCc2cccc(F)c2)n1` [(6-[(cyanoamino)iminomethyl]-2-{[2-(3-fluorophenyl)ethyl]amino}(3-pyridyl))-N-(3-pyridylmethyl)carboxamide] the value was 0.231 µM; for `COCCNc1ccc(C(=O)NCc2cccnc2)c(NCCc2cccc(F)c2)n1` [(2-{[2-(3-fluorophenyl)ethyl]amino}-6-[(2-methoxyethyl)amino](3-pyridyl))-N-(3-pyridylmethyl)carboxamide], 7.62 µM; for `CN(C)C(=O)CCCCNc1ccc(C(=O)NCc2cccnc2)c(NCCc2cccc(F)c2)n1` [5-[(6-{[2-(3-fluorophenyl)ethyl]amino}-5-[N-(3-pyridylmethyl)carbamoyl](2-pyridyl))amino]-N,N-dimethylpentanamide], 55.1 µM.

As to `C/C=C/c1nc(NCCc2cccc(F)c2)c(C(=O)NCc2cccnc2CNC(=O)OC(C)(C)C)cc1F` [(6-((1E)prop-1-enyl)-5-fluoro-2-{[2-(3-fluorophenyl)ethyl]amino}(3-pyridyl))-N-[(2-{[(tert-butoxy)carbonylamino]methyl}(3-pyridyl))methyl]carboxamide], the IC50 was found to be 11.7 µM. For `CC(=O)c1ccc(C(=O)NCc2cccnc2)c(NCCc2cccc(F)c2)n1` [(6-acetyl-2-{[2-(3-fluorophenyl)ethyl]amino}(3-pyridyl))-N-(3-pyridylmethyl)carboxamide], the half-maximal inhibitory concentration (IC50) was determined as 24.8 µM. The same measure for `CN(C)/C(=N/C#N)c1ccc(C(=O)NCc2cccnc2)c(NCCc2cccc(F)c2)n1` [(6-[(1E)-1-(dimethylamino)-2-cyano-2-azavinyl]-2-{[2-(3-fluorophenyl)ethyl]amino}(3-pyridyl))-N-(3-pyridylmethyl)carboxamide]: 5.19 µM; for `O=C(NCc1cccnc1)c1ccc(NCCO)nc1NCCc1cccc(F)c1` [(2-{[2-(3-fluorophenyl)ethyl]amino}-6-[(2-hydroxyethyl)amino](3-pyridyl))-N-(3-pyridylmethyl)carboxamide]: 13.1 µM; for `CNC(=O)CCCCNc1ccc(C(=O)NCc2cccnc2)c(NCCc2cccc(F)c2)n1` [5-[(6-{[2-(3-fluorophenyl)ethyl]amino}-5-[N-(3-pyridylmethyl)carbamoyl](2-pyridyl))amino]-N-methylpentanamide]: 38 µM. The same measure for `NCc1ncccc1CNC(=O)c1cc(F)cnc1NCCc1cccc(F)c1` [N-{[2-(aminomethyl)(3-pyridyl)]methyl}(5-fluoro-2-{[2-(3-fluorophenyl)ethyl]amino}(3-pyridyl))carboxamide]: 2.69 µM. For `NCc1cccc(CNC(=O)c2cc(-c3ccncc3)cnc2NCCc2cccc(F)c2)n1` [N-{[6-(aminomethyl)(2-pyridyl)]methyl}(2-{[2-(3-fluorophenyl)ethyl]amino}-5-(4-pyridyl)(3-pyridyl))carboxamide] the value was 9.84 µM; for `O=C(O)c1cc(Br)cnc1NCCc1cccc(F)c1` [5-bromo-2-{[2-(3-fluorophenyl)ethyl]amino}pyridine-3-carboxylic acid], 11.2 µM. Regarding `C/C=C/c1ccc(C(=O)NCc2cccnc2)c(NCCc2cccc(F)c2)n1` [(6-((1E)prop-1-enyl)-2-{[2-(3-fluorophenyl)ethyl]amino}(3-pyridyl))-N-(3-pyridylmethyl)carboxamide], the half-maximal inhibitory concentration (IC50) came to 0.302 µM. As to `NC(=O)CCCCNc1ccc(C(=O)NCc2cccnc2)c(NCCc2cccc(F)c2)n1` [(6-[(4-carbamoylbutyl)amino]-2-{[2-(3-fluorophenyl)ethyl]amino}(3-pyridyl))-N-(3-pyridylmethyl)carboxamide], the IC50 turned out to be 6.74 µM. The same measure for `NC(=O)c1ccc(C(=O)NCc2cccnc2)c(NCCc2cccc(F)c2)n1` [6-{[2-(3-fluorophenyl)ethyl]amino}-5-[N-(3-pyridylmethyl)carbamoyl]pyridine-2-carboxamide]: 14 µM; for `O=C(NCc1cccc(CN2C(=O)c3ccccc3C2=O)n1)c1cc(Br)cnc1NCCc1cccc(F)c1` [N-({6-[(1,3-dioxobenzo[c]azolin-2-yl)methyl](2-pyridyl)}methyl)(5-bromo-2-{[2-(3-fluorophenyl)ethyl]amino}(3-pyridyl))carboxamide]: 9.72 µM.
